Series [1] has as its system Wistar Hannover RccHan rats. The series can be described thus: Extended acute single dose intravenous (bolus) toxicity study in rats. It is filed as in vivo. The text has this: For acute intravenous toxicity studies Crl:NMRI (SPF) female mice provided by Charles River Laboratories (Germany) of 7–9 weeks of age and a body weight of 26–33 g were used. For extended acute single dose toxicity study in rats, 45 female and 45 male Wistar Hannover RccHan™ rats were used purchased from Harlan Laboratories, B.V. (The Netherlands). Animals were […] of age and the body weights were 195–235 g for males and 164–199 g for females. For in vivo stability tests and biodistribution/dosimetry studies healthy male Swiss albino mice from NCSR “Demokritos” Animal House were used, of 8–10 weeks of age and a body weight of 20–25 g. For the CCK2R-expressing tumour model, male SCID mice from NCSR “Demokritos” Animal House were used, of 6 weeks of age on arrival day and a body weight of 20 ± 2 g.
The study was designed according to the microdosing concept as described in ICH guideline M3 (R2) (“Note for guidance on non-clinical safety studies for the conduct of human clinical trials and marketing authorization for pharmaceuticals” (CPMP/ICH/286/95)). In brief, 90 rats were distributed into three dose groups, each containing fifteen animals per sex (Table 1). The animals from Group 1 received only PBS, serving as controls, while groups II and III received the CP04 solution by single intravenous (bolus) injection at a low (89 μg/kg body weight: Group 2) and a high dose (890 μg/kg body weight: Group 3). A 24-h observation period followed (Allocation A), except for five animals per sex from each group for which treatment was followed by an additional 14-day treatment-free recovery period (Allocation B).
At day 2 blood samples were withdrawn from Allocation-A animals for haematology, clinical biochemistry and samples for urinary analyses were collected. These animals were necropsied on the same day and histological examinations were performed on an extended set of organs (adrenal glands, kidneys, liver, pancreas, sternum (including bone marrow), small intestine, stomach, thyroid/parathyroid glands and gross lesions). The animals from Allocation-B remained untreated for the following 14 days, but on day 15 underwent the same procedure described above (Extended Acute Intravenous (Bolus) Toxicity Study in Rats, Harlan Study #S47364).

The subject of series [2] is CCK2R. More on the design: method as in Aloj et al., 2011; Kolenc Peitl et al., 2015. The settings on record: ref Aloj et al., 2011; Kolenc Peitl et al., 2015; cited from earlier work.
The test system of series [3] is Crl:NMRI (SPF) female mice. The series can be described thus: Acute intravenous toxicity of CP04 in mice. It is filed as in vivo. The note with it: 178.5 μg/kg body weight iv. From the text: For acute intravenous toxicity studies Crl:NMRI (SPF) female mice provided by Charles River Laboratories (Germany) of 7–9 weeks of age and a body weight of 26–33 g were used. For extended acute single dose toxicity study in rats, 45 female and 45 male Wistar Hannover RccHan™ rats were used purchased from Harlan Laboratories, B.V. (The Netherlands). Animals were […] of age and the body weights were 195–235 g for males and 164–199 g for females. For in vivo stability tests and biodistribution/dosimetry studies healthy male Swiss albino mice from NCSR “Demokritos” Animal House were used, of 8–10 weeks of age and a body weight of 20–25 g. […]
The CP04 precursor was dissolved in phosphate buffered saline (PBS pH 7.4) and was administered at a dose of 178.5 μg/kg body weight and a dose volume of 5 mL/kg body weight into the caudal vein of two groups of three mice (Acute Intravenous Toxicity Study in Mice, Harlan Laboratories Study #D04314). […] Mortality, viability and clinical signs were recorded. […] Mortality/viability was recorded within the first 30 min and approximately 1, 2, 3 and 5 h after administration on test day 1 (with the clinical signs) and twice daily during days 2–15. Body weights were recorded on test day 1 (prior to administration) and on test days 8 and 15. […]

Details of series [4]: species or system mice. As to the method:
Clearance kinetics in each organ was determined by exponential curve fitting. The time-integrated activity concentration (TIAC) was obtained by integration of this exponential curve folded with the decay curve of ^111In and ^177Lu.Mouse dosimetry was calculated for both ^177Lu and ^111In using the TIAC and the 25 g RADAR mouse absorbed dose rates per unit activity S for each source and target organ combination ([Keenan et al., 2010]; [Konijnenberg et al., 2014]).

Each structure is given as a SMILES string.

`CSCC[C@H](NC(=O)[C@H](Cc1c[nH]c2ccccc12)NC(=O)CNC(=O)[C@H](Cc1ccc(O)cc1)NC(=O)[C@H](C)NC(=O)[C@@H](CCC(=O)O)NC(=O)[C@@H](CCC(=O)O)NC(=O)[C@@H](CCC(=O)O)NC(=O)[C@@H](CCC(=O)O)NC(=O)[C@@H](CCC(=O)O)NC(=O)[C@@H](CCC(=O)O)NC(=O)CN1CCN(CC(=O)O)CCN(CC(=O)O)CCN(CC(=O)O)CC1)C(=O)N[C@@H](CC(=O)O)C(=O)N[C@@H](Cc1ccccc1)C(N)=O` [CP04, DOTA-(DGlu)6-Ala-Tyr-Gly-Trp-Met-Asp-Phe-NH2]: the “maximum recommended starting dose (MRSD) for a first-in-human clinical trial” value in series [1] (HED with safety factor of 10) is 1.4 µg/kg. In series [1] (NOAEL × rat km/human km = 89 μg/kg × 6/37), the “human equivalent dose (HED)” value came out at 14.4 µg/kg. The reticulocyte count result in series [1] (male rats, 14 days after single bolus 890 μg/kg body weight) is “marked decrease”. For the same compound, the “mean food consumption and body weight gain” value in series [1] (rats, single bolus 890 μg/kg body weight) is listed as “moderate decrease”. For the same compound, in series [1] (rats, single intravenous bolus), the “NOAEL initially established, based on pathological examination” value is listed as 890 μg/kg body weight. Further, the “no-observed-adverse-effect-level (NOAEL)” value in series [1] (rats, single intravenous bolus, eventually set value) is reported as 89 μg/kg body weight. Besides, the “survival and clinical signs” value in series [1] (rats, single iv bolus 89 or 890 μg/kg, 24-h study period) is “All animals survived the 24-h study period with no clinical signs being recorded”. The “CCK2R-affinity, IC50” value in series [2] is given as “lower nM range”. In series [3] (female mice), the “macroscopic findings at necropsy” value is listed as “No macroscopic findings”. The “survival and systemic signs of toxicity” value in series [3] (two groups of three female mice, 14 days observation) is reported as “All animals survived until the end of the study with no systemic signs of toxicity evident”.

As to `CSCC[C@H](NC(=O)[C@H](Cc1c[nH]c2ccccc12)NC(=O)CNC(=O)[C@H](Cc1ccc(O)cc1)NC(=O)[C@H](C)NC(=O)[C@@H](CCC(=O)O)NC(=O)[C@@H](CCC(=O)O)NC(=O)[C@@H](CCC(=O)O)NC(=O)[C@@H](CCC(=O)O)NC(=O)[C@@H](CCC(=O)O)NC(=O)[C@@H](CCC(=O)O)NC(=O)CN1CCN(CC(=O)O)CCN(CC(=O)O)CCN(CC(=O)O)CC1)C(=O)N[C@@H](CC(=O)O)C(=O)N[C@@H](Cc1ccccc1)C(N)=O` [^177Lu-CP04, metal not drawn], in series [4], the “Absorbed dose per injected activity, Bone” value is given as 51 mGy/MBq; the “Absorbed dose per injected activity, Kidneys” value is 400 mGy/MBq; the “Absorbed dose per injected activity, Large intestine” value worked out at 36 mGy/MBq; the “Absorbed dose per injected activity, Liver” value was 7 mGy/MBq. In addition, in series [4], the “Absorbed dose per injected activity, Lungs” value came to 12 mGy/MBq; the “Absorbed dose per injected activity, Pancreas” value came to 16 mGy/MBq; the “Absorbed dose per injected activity, Small intestine” value came to 36 mGy/MBq; the “Absorbed dose per injected activity, Spleen” value turned out to be 9 mGy/MBq. In series [4], the “Absorbed dose per injected activity, Stomach wall” value came to 86 mGy/MBq and the “Absorbed dose per injected activity, Total body” value is recorded as 19 mGy/MBq.

Source of the values: article PMC4948680 (European journal of pharmaceutical sciences : official …, 2016).
